{"source": "patent US8846704B2", "about": "“Thiopyrimidine-based compounds and uses thereof” (YM Biosciences Austraila Pty Ltd, priority 2007, dated 2014)"}
{"target": "T1, BaF3 TELJAK3 cells (Homo sapiens, UniProt P52333)", "T1 construct": "fused on or other part: TEL (ETV6) N-terminal part, coding nucleotides 1-487, serves as the oligomerising partner; It is fused through a Sal I site to the JAK3 kinase domain and expressed from pTRE2 in BaF3 cells bearing pTET-off; P41212 (Transcription factor ETV6)", "T1 sequence (P52333 1-1124)": "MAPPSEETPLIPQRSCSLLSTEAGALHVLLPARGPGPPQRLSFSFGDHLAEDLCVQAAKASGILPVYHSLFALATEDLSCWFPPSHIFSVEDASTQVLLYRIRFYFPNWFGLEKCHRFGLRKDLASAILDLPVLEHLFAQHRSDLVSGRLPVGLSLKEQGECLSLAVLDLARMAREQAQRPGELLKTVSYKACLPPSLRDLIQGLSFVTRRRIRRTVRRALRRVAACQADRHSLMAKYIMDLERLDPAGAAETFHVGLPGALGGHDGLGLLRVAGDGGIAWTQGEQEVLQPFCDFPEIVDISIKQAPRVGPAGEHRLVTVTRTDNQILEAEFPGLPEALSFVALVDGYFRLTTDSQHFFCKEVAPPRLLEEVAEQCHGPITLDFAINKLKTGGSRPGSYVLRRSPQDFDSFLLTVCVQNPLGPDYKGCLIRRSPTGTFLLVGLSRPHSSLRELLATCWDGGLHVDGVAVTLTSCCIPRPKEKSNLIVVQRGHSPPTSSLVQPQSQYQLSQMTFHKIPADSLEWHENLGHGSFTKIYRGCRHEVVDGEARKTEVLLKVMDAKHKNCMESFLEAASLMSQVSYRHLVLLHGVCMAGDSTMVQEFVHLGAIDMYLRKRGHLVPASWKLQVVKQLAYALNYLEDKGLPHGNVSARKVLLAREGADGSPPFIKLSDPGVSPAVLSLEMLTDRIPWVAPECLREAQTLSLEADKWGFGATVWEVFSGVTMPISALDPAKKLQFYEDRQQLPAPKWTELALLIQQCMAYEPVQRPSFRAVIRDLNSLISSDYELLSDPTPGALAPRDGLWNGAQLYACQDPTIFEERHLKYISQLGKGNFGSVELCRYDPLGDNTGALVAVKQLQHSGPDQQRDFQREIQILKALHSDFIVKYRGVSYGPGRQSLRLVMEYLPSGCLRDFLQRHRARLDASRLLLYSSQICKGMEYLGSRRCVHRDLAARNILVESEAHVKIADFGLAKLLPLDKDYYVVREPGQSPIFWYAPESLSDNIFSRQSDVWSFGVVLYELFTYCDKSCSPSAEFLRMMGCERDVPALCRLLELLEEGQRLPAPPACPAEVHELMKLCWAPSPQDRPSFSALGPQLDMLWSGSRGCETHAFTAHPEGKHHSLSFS", "assay": "Cellular screening, BaF3 TEL:JAK3 cells, Alamar Blue", "assay_type": "cell-based", "conditions": "40 hr, read-out: BafT_J3 IC50_nM", "procedure": "For screening purposes, compounds were diluted in 96 well plates at a concentration of 20 μM. Plates were warmed at 37° C. for 30 minutes before the assay was performed.\nThe coding region encompassing nucleotides 1-487 of TEL was amplified by PCR using the oligonucleotides STEL (5′-GGAGGATCCTGATCTCTCTCGCTGTGAGAC-3′) [SEQ ID NO 14] and 3TEL (5′-AGGC GTCGACTTCTTCTTCATGGTTCTG-3′) [SEQ ID NO 15] and U937 mRNA as a template. A […] restriction site was incorporated into the STEL primer, and a Sal I restriction site was incorporated into the 3TEL primer. The regions encompassing the kinase domain of JAK2 (nucleotides 2994-3914; JAK2F 5′-ACGC GTCGACGGTGCCTTTGAAGACCGGGAT-3′ [SEQ ID NO 16]; JAK2R 5′-ATAGTTTAGCGGCCGCTCAGAATGAAGGTCATTT-3′) [SEQ ID NO 17] and JAK3 (nucleotides 2520-3469; JAK3F 5′-GAAGTCGACTATGCCTGCCAAGACCCCACGATCTT-3′) [SEQ ID NO 18] were generated by PCR using Taq DNA polymerase (Gibco/BRL) and […] as a template. A Sal I restriction site was incorporated into the forward primer of JAK2 and JAK3, a Not I site was incorporated into the JAK2 reverse primer and a Xba I site was added to the reverse primer of JAK3.\nThe TEL/Jak3 fusion was prepared by ligation of the JAK3 Sal I/Not I cleaved kinase domain PCR product with the BamH I/Sal I restriction digested TEL product, followed by ligation of the ligation product into the BamH I/Not I digested pTRE2, to give the TEL/Jak3 fusion plasmid pTELJAK3.\nThe growth factor dependant myelomonocytic cell line BaF3 bearing the pTET-off plasmid (Clontech) was transfected with either pTELJAK2 or pTELJAK3, and the transfected cells were selected for growth-factor independent cell growth. The BaF3 wild-type cells were cultured in DMEM containing 10% FCS, 10% WEHI 3B conditioned medium. The BaF3 TELJAK cells ([…]) were cultured in DMEM 10% Tet-System Approved FBS (without WEHI 3B conditioned medium).\nCell suspensions were prepared by harvesting cells from culture (the cells used in this test were in late log phase growth with high viability.) Cells were diluted in the appropriate growth medium, as described above, to 1.1× final concentration (from 50,000 cell/mL to 200,000 cell/mL, depending on cell line).\nCompounds to be tested were added (10 μL, 10× final concentration) to a flat bottomed 96-well plate. The cellular suspension (90 μL per well) was then added, and the plate incubated for 40 hr at 37° C., 5% CO2. Alamar Blue 10 μL per well was added and the plates returned to the incubator for a further 4-6 hours. The plates were then read at 544 nm.", "units": {"GI50": "µM"}}
{"smiles": "Cc1cnc(Nc2ccc(N3CCN(C)CC3)cc2)nc1Sc1ccc(N)cc1", "note": "[Compound 244, 4-(4-aophenylthio)-5-methyl-N-(4-(4-methylpiperazin-1-yl)phenyl)pyrimidin-2-ae]", "GI50": "< 5"}
{"smiles": "C=CC(=O)NCc1ccc(Sc2ccnc(Nc3ccc(N4CCOCC4)cc3)n2)cc1", "note": "[Compound 111, N-(4-(2-(4-morpholinophenylamino)pyrimidin-4-ylthio)benzyl)acrylamide]", "GI50": "< 1"}
{"smiles": "Cc1cnc(Nc2ccc(N3CCOCC3)cc2)nc1Sc1ccc(N)cc1Cl", "note": "[Compound 251, 4-(4-ao-2-chlorophenylthio)-5-methyl-N-(4-morpholinophenyl)pyrimidin-2-ae]", "GI50": "> 20"}
{"smiles": "N#CCNCc1cccc(Sc2ccnc(Nc3ccc(N4CCOCC4)cc3)n2)c1", "note": "[Compound 68, 2-(3-(2-(4-morpholinophenylao)pyrimidin-4-ylthio)benzylao)acetonitrile]", "GI50": "< 20"}
{"smiles": "C=CC(=O)Nc1ccc(Sc2nc(Nc3ccc(N4CCOCC4)c(OC)c3)ncc2C)cc1", "note": "[Compound 248, N-(4-(2-(3-methoxy-4-morpholinophenylao)-5-methylpyrimidin-4-ylthio)phenyl)acrylamide]", "GI50": "< 1"}
{"smiles": "Nc1ccc(Sc2nc(Nc3cccc(N4CCOCC4)c3)ncc2I)cc1", "note": "[Compound 264, 4-(4-aophenylthio)-5-iodo-N-(3-morpholinophenyl)pyrimidin-2-ae]", "GI50": "< 5"}
{"smiles": "Cc1cnc(Nc2cccc(N3CCN(C)CC3)c2)nc1Sc1ccc(N)cc1", "note": "[Compound 245, 4-(4-aophenylthio)-5-methyl-N-(3-(4-methylpiperazin-1-yl)phenyl)pyrimidin-2-ae]", "GI50": "< 1"}
{"smiles": "C=CC(=O)Nc1ccc(Sc2nc(Nc3ccc(OC)c(OC)c3)ncc2C)cc1", "note": "[Compound 241, N-(4-(2-(3,4-dimethoxyphenylao)-5-methylpyrimidin-4-ylthio)phenyl)acrylamide]", "GI50": "< 1"}
{"smiles": "Nc1ccc(Sc2ccnc(Nc3ccc(N4CCOCC4)cc3)n2)cc1", "note": "[Compound 27, 4-(4-aophenylthio)-N-(4-morpholinophenyl)pyrimidin-2-ae]", "GI50": "< 20"}
{"smiles": "COc1ccc(Nc2ncc(C)c(Sc3ccc(N)cc3)n2)cc1OC", "note": "[Compound 240, 4-(4-aophenylthio)-N-(3,4-dimethoxyphenyl)-5-methylpyrimidin-2-ae]", "GI50": "< 5"}
{"smiles": "NCc1cccc(Sc2ccnc(Nc3ccc(N4CCOCC4)cc3)n2)c1", "note": "[Compound 75, 4-(3-(aomethyl)phenylthio)-N-(4-morpholinophenyl)pyrimidin-2-ae]", "GI50": "< 20"}
{"smiles": "C=CC(=O)Nc1ccc(Sc2ccnc(Nc3ccc(N4CCN(C)CC4)cc3)n2)cc1", "note": "[Compound 238, N-(4-(2-(4-(4-methylpiperazin-1-yl)phenylao)pyrimidin-4-ylthio)phenyl)acrylamide]", "GI50": "< 1"}
{"smiles": "Cc1cnc(Nc2ccc(N3CCOCC3)cc2)nc1Sc1ccc(N2C(=O)C=C(Br)C2=O)cc1", "note": "[Compound 382, 3-bromo-1-(4-(5-methyl-2-(4-morpholinophenylao)pyrimidin-4-ylthio)phenyl)-1H-pyrrole-2,5-dione]", "GI50": "< 20"}
{"smiles": "C=CC(=O)Nc1ccc(Sc2nc(Nc3ccc(N4CCOCC4)cc3)ncc2C)cc1C", "note": "[Compound 259]", "GI50": "< 1"}
{"smiles": "C=CC(=O)Nc1cccc(Nc2nccc(Sc3ccc(OC)cc3)n2)c1", "note": "[Compound 42, N-(3-(4-(4-methoxyphenylthio)pyrimidin-2-ylao)phenyl)acrylamide]", "GI50": "< 5"}
{"smiles": "Cc1cnc(Nc2ccc(N3CCOCC3)cc2)nc1Sc1c(C)cc(N)cc1C", "note": "[Compound 165, 4-(4-ao-2,6-dimethylphenylthio)-5-methyl-N-(4-morpholinophenyl)pyrimidin-2-ae]", "GI50": "> 20"}
{"smiles": "N#CCC(=O)Nc1cccc(Sc2ccnc(Nc3ccc(N4CCOCC4)cc3)n2)c1", "note": "[Compound 24, N-(3-(2-(4-morpholinophenylamino)pyrimidin-4-ylthio)phenyl)-2-cyanoacetamide]", "GI50": "< 20"}
{"smiles": "C=CC(=O)Nc1ccc(Sc2ccnc(Nc3ccc(N4CCOCC4)cc3)n2)cc1", "note": "[Compound 25, N-(4-(2-(4-morpholinophenylamino)pyrimidin-4-ylthio)phenyl)acrylamide]", "GI50": "< 1"}
{"smiles": "C=CC(=O)Nc1ccc(Sc2ccnc(Nc3ccc(S(N)(=O)=O)c(OC)c3)n2)cc1", "note": "[Compound 374, N-(4-(2-(3-methoxy-4-sulfamoylphenylao)pyrimidin-4-ylthio)phenyl)acrylamide]", "GI50": "< 1"}
{"smiles": "C=CC(=O)Nc1ccc(Sc2nc(Nc3cccc(CO)c3)ncc2C)cc1", "note": "[Compound 280, N-(4-(2-(3-(hydroxymethyl)phenylao)-5-methylpyrimidin-4-ylthio)phenyl)acrylamide]", "GI50": "< 1"}
{"smiles": "Cc1cc(Sc2nc(Nc3ccc(N4CCOCC4)cc3)ncc2C)ccc1N", "note": "[Compound 255, 4-(4-ao-3-methylphenylthio)-5-methyl-N-(4-morpholinophenyl)pyrimidin-2-ae]", "GI50": "< 20"}
{"smiles": "OCc1ccc(Sc2ccnc(Nc3ccc(N4CCOCC4)cc3)n2)cc1", "note": "[Compound 67, (4-(2-(4-morpholinophenylao)pyrimidin-4-ylthio)phenyl)methanol]", "GI50": "< 20"}
{"smiles": "C=CC(=O)Nc1ccc(Sc2nc(Nc3ccc(N4CCOCC4)cc3)ncc2Br)cc1", "note": "[Compound 306, N-(4-(5-bromo-2-(4-morpholinophenylao)pyrimidin-4-ylthio)phenyl)acrylamide]", "GI50": "< 1"}
{"smiles": "C=CC(=O)Nc1ccc(Sc2nc(Nc3ccc(NS(C)(=O)=O)cc3)ncc2C)cc1", "note": "[Compound 285, N-(4-(5-methyl-2-(4-(methylsulfonamido)phenylao)pyrimidin-4-ylthio)phenyl)acrylamide]", "GI50": "< 1"}
{"smiles": "CCOC(=O)/C=C/C(=O)Nc1ccc(Sc2nc(Nc3ccc(N4CCOCC4)cc3)ncc2C)cc1", "note": "[Compound 385, (E)-ethyl 4-(4-(5-methyl-2-(4-morpholinophenylao)pyrimidin-4-ylthio)phenylao)-4-oxobut-2-enoate]", "GI50": "< 1"}
{"smiles": "C=CC(=O)Nc1ccc(Sc2nc(Nc3ccc(OCCCN(CC)CC)cc3)ncc2C)cc1", "note": "[Compound 291, N-(4-(2-(4-(3-(diethylao)propoxy)phenylao)-5-methylpyrimidin-4-ylthio)phenyl)acrylamide]", "GI50": "< 1"}
{"smiles": "C=CC(=O)Nc1ccc(Sc2ccnc(Nc3cc(C)cc(C)c3)n2)cc1", "note": "[Compound 82, N-(4-(2-(3,5-dimethylphenylao)pyrimidin-4-ylthio)phenyl)acrylamide]", "GI50": "< 5"}
